Assay results reported in patent US20250304620A1, “ANTIMICROBIAL PEPTIDE AND APPLICATION THEREOF” (priority 2023, published 2025).
Values after ≈ are worked out from the molar mass of the structure shown. Marks after values point to notes of the source that are not given here. Non-standard residues stand in square brackets, D forms with d. Residues, ends and D or L forms follow the SMILES beside them. d2Nal = N[C@H](Cc1ccc2ccccc2c1)C(=O)O; d(hLeu) = CC(C)CC[C@@H](N)C(=O)O

Experiments:
[1] = system: Salmonella typhimurium ATCC 14028; type: cell-based
Summary of the method: (§1)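 CLSI microdilution, serial 2-fold dilutions; MIC read-out; n = 5 parallel repeats.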

[2] = system: Bacillus subtilis ATCC 6633; type: cell-based
Summary of the method: as §1

[3] = system: Corynebacterium ATCC 7715; type: cell-based
Summary of the method: as §1

[4] = system: Candida glabrata ATCC 15126; type: cell-based
Summary of the method: as §1

[5] = system: Serratia marcescens ATCC 29021; type: cell-based
Summary of the method: as §1

[6] = system: Candida tropicalis ATCC 750; type: cell-based
Summary of the method: as §1

[7] = system: Pseudomonas aeruginosa ATCC 27853; type: cell-based
Summary of the method: as §1

[8] = system: Candida krusei ATCC 6258; type: cell-based
Summary of the method: as §1

[9] = system: Staphylococcus aureus ATCC 25923; type: cell-based
Summary of the method: as §1

[10] = system: Candida albicans ATCC MYA-2876; type: cell-based
Summary of the method: as §1

[11] = system: Candida utilis ATCC 9950; type: cell-based
Summary of the method: as §1

[12] = system: Trichophyton ATCC MYA-4438; type: cell-based
Summary of the method: as §1

[13] = system: Escherichia coli ATCC 25922; type: cell-based
Summary of the method: as §1

[14] = system: Enterococcus ATCC 29212; type: cell-based
Summary of the method: as §1

[15] = system: Klebsiella pneumoniae ATCC 700603; type: cell-based
Summary of the method: as §1

[16] = system: Staphylococcus aureus (NRS 384); settings: NRS 384, 3 h
Description: Trypsin (250 U/mg, pH=8.0) and AMPs (LV-1 to LV-30) were mixed in a ratio of 1:10 (w/w) and added to a reaction buffer (0.2 M sodium phosphate, 1 mM CaCl2), pH 7.5), and then incubated at 37° C. for 3 h.

[17] = system: Pseudomonas aeruginosa ATCC 27853; experiment: Injectable formulations on mice infected with peritonitis; type: in vivo, ICR mice; settings: 1 mg/kg via tail vein, twice a day for 3 days, n = 10; for Average survival times (Days): observed for 14 d
Summary of the method: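 Survival readout: deaths and survival time tracked for 14 d. Treatment was tail-vein injection by body weight, twice a day for 3 consecutive days, starting right after intraperitoneal challenge with 0.2 mL of 1×10^9 CFU/mL P. aeruginosa ATCC 27853 in male and female ICR mice.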

[18] = Serum stability assay (residual level by RP-HPLC); settings: human
[19] = system: carbapenem-resistant Pseudomonas aeruginosa (CRPA); type: cell-based; settings: carbapenem-resistant (CRPA)
Summary of the method: (§2)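 Broth serial twofold dilution per CLSI standards, run 5 times in parallel, gave MIC values for the peptides against clinically common resistant strains.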

[20] = system: Methicillin-resistant Staphylococcus aureus (MRSA); type: cell-based; settings: Methicillin-resistant
Summary of the method: as §2

[21] = system: carbapenem-resistant Klebsiella pneumoniae (CRKP); type: cell-based; settings: carbapenem-resistant (CRKP)
Summary of the method: as §2

[22] = system: vancomycin-resistant Enterococcus (VRE); type: cell-based
Summary of the method: as §2

[23] = system: carbapenem-resistant Escherichia coli (CREC); type: cell-based; settings: carbapenem-resistant (CREC)
Summary of the method: as §2

| SMILES | MIC Salmonella typhimurium ATCC 14028 [1] [µg/mL] | MIC Bacillus subtilis ATCC 6633 [2] [µg/mL] | MIC Corynebacterium ATCC 7715 [3] [µg/mL] | MIC Candida glabrata ATCC 15126 [4] [µg/mL] | MIC Serratia marcescens ATCC 29021 [5] [µg/mL] | MIC Candida tropicalis ATCC 750 [6] [µg/mL] | MIC Pseudomonas aeruginosa ATCC 27853 [7] [µg/mL] | MIC Candida krusei ATCC 6258 [8] [µg/mL] | MIC Staphylococcus aureus ATCC 25923 [9] [µg/mL] | MIC Candida albicans ATCC MYA-2876 [10] [µg/mL] | MIC Candida utilis ATCC 9950 [11] [µg/mL] | MIC Trichophyton ATCC MYA-4438 [12] [µg/mL] | MIC Escherichia coli ATCC 25922 [13] [µg/mL] | MIC Enterococcus ATCC 29212 [14] [µg/mL] | MIC Klebsiella pneumoniae ATCC 700603 [15] [µg/mL] | Trypsin MIC [16] [µg/mL] | Number of mice that died on each day after infection: day 1 [17] [Mouse] | Number of mice that died on each day after infection: day 2 [17] [Mouse] | Number of mice that died on each day after infection: day 3 [17] [Mouse] | Number of mice that died on each day after infection: day 4 [17] [Mouse] | further results |
| --- | --- | --- | --- | --- | --- | --- | --- | --- | --- | --- | --- | --- | --- | --- | --- | --- | --- | --- | --- | --- | --- |
| CC(=O)N[C@H](CCCNC(=N)N)C(=O)N[C@H](CCCCN)C(=O)N[C@H](CCC(C)C)C(=O)N[C@H](CCC(C)C)C(=O)N[C@H](Cc1ccc2ccccc2c1)C(=O)N[C@H](CCCNC(=N)N)C(=O)N[C@H](CCC(C)C)C(=O)N[C@H](CCCCN)C(=O)N[C@H](Cc1ccc2ccccc2c1)C(=O)N[C@H](CCCNC(=N)N)C(=O)N[C@H](CCCCN)C(N)=O [LV-14] (Ac-[dR][dK][d(hLeu)][d(hLeu)][d2Nal][dR][d(hLeu)][dK][d2Nal][dR][dK]-NH2) | 4 (≈ 2.37 µM) | 2 (≈ 1.18 µM) | 8 (≈ 4.74 µM) | 4 (≈ 2.37 µM) | 8 (≈ 4.74 µM) | 8 (≈ 4.74 µM) | 4 (≈ 2.37 µM) | 16 (≈ 9.48 µM) | 2 (≈ 1.18 µM) | 16 (≈ 9.48 µM) | 4 (≈ 2.37 µM) | 8 (≈ 4.74 µM) | 2 (≈ 1.18 µM) | 4 (≈ 2.37 µM) | 4 (≈ 2.37 µM) | 1 | 1 | 2 | 0 | 1 | Number of mice that died on each day after infection: day 5 [17]: 1 Mouse; Average survival times (Days) [17]: 8.4** Days; remaining at 12 h, 0.91 mg/mL [18]: 97.1%; MIC CRPA [19]: 8 µg/mL (≈ 4.74 µM); MIC MRSA [20]: 4 µg/mL (≈ 2.37 µM); MIC CRKP [21]: 4 µg/mL (≈ 2.37 µM); MIC VRE [22]: 4 µg/mL (≈ 2.37 µM); MIC CREC [23]: 8 µg/mL (≈ 4.74 µM) |
| CC(=O)N[C@H](CCCNC(=N)N)C(=O)N[C@H](CCCCN)C(=O)N[C@H](C)C(=O)N[C@H](C)C(=O)N[C@H](Cc1ccc2ccccc2c1)C(=O)N[C@H](CCCNC(=N)N)C(=O)N[C@H](C)C(=O)N[C@H](CCCCN)C(=O)N[C@H](Cc1ccc2ccccc2c1)C(=O)N[C@H](CCCNC(=N)N)C(=O)N[C@H](CCCCN)C(N)=O [LV-15] (Ac-[dR][dK][dA][dA][d2Nal][dR][dA][dK][d2Nal][dR][dK]-NH2) | 2 (≈ 1.32 µM) | 4 (≈ 2.63 µM) | 8 (≈ 5.26 µM) | 4 (≈ 2.63 µM) | 8 (≈ 5.26 µM) | 8 (≈ 5.26 µM) | 4 (≈ 2.63 µM) | 4 (≈ 2.63 µM) | 2 (≈ 1.32 µM) | 8 (≈ 5.26 µM) | 8 (≈ 5.26 µM) | 8 (≈ 5.26 µM) | 2 (≈ 1.32 µM) | 4 (≈ 2.63 µM) | 4 (≈ 2.63 µM) | 1 | 1 | 2 | 0 | 2 | Number of mice that died on each day after infection: day 5 [17]: 0 Mouse; Average survival times (Days) [17]: 8.3** Days; remaining at 12 h, 0.91 mg/mL [18]: 97.3%; MIC CRPA [19]: 8 µg/mL (≈ 5.26 µM); MIC MRSA [20]: 4 µg/mL (≈ 2.63 µM); MIC CRKP [21]: 8 µg/mL (≈ 5.26 µM); MIC VRE [22]: 8 µg/mL (≈ 5.26 µM); MIC CREC [23]: 4 µg/mL (≈ 2.63 µM) |
| CC(=O)N[C@H](CCCNC(=N)N)C(=O)N[C@H](CCCCN)C(=O)N[C@@H](C(=O)N[C@@H](C(=O)N[C@H](Cc1ccc2ccccc2c1)C(=O)N[C@H](CCCNC(=N)N)C(=O)N[C@@H](C(=O)N[C@H](CCCCN)C(=O)N[C@H](Cc1ccc2ccccc2c1)C(=O)N[C@H](CCCNC(=N)N)C(=O)N[C@H](CCCCN)C(N)=O)C(C)C)C(C)C)C(C)C [LV-16] (Ac-[dR][dK][dV][dV][d2Nal][dR][dV][dK][d2Nal][dR][dK]-NH2) | 2 (≈ 1.25 µM) | 4 (≈ 2.49 µM) | 2 (≈ 1.25 µM) | 16 (≈ 9.97 µM) | 4 (≈ 2.49 µM) | 4 (≈ 2.49 µM) | 4 (≈ 2.49 µM) | 4 (≈ 2.49 µM) | 1 (≈ 0.623 µM) | 8 (≈ 4.99 µM) | 8 (≈ 4.99 µM) | 8 (≈ 4.99 µM) | 1 (≈ 0.623 µM) | 2 (≈ 1.25 µM) | 2 (≈ 1.25 µM) | 1 | 2 | 1 | 1 | 1 | Number of mice that died on each day after infection: day 5 [17]: 0 Mouse; Average survival times (Days) [17]: 8.1** Days; remaining at 12 h, 0.91 mg/mL [18]: 98.4%; MIC CRPA [19]: 8 µg/mL (≈ 4.99 µM); MIC MRSA [20]: 4 µg/mL (≈ 2.49 µM); MIC CRKP [21]: 2 µg/mL (≈ 1.25 µM); MIC VRE [22]: 2 µg/mL (≈ 1.25 µM); MIC CREC [23]: 8 µg/mL (≈ 4.99 µM) |
